Patent US6403637B1, “Methods of modulating matrix metalloproteinase activity and uses thereof” (priority 1999, dated 2002)

Key:
[1] = target: T1, collagenase-3 receptor (Rattus norvegicus, UniProt Q4TU93); experiment: Scatchard analysis of 125I-mMMP-13 binding to UMR 106-01 cells, high affinity site
T1 construct: endogenous in cells; host or cells: UMR 106-01 rat osteosarcoma cells
T1 sequence (Q4TU93 31-1480): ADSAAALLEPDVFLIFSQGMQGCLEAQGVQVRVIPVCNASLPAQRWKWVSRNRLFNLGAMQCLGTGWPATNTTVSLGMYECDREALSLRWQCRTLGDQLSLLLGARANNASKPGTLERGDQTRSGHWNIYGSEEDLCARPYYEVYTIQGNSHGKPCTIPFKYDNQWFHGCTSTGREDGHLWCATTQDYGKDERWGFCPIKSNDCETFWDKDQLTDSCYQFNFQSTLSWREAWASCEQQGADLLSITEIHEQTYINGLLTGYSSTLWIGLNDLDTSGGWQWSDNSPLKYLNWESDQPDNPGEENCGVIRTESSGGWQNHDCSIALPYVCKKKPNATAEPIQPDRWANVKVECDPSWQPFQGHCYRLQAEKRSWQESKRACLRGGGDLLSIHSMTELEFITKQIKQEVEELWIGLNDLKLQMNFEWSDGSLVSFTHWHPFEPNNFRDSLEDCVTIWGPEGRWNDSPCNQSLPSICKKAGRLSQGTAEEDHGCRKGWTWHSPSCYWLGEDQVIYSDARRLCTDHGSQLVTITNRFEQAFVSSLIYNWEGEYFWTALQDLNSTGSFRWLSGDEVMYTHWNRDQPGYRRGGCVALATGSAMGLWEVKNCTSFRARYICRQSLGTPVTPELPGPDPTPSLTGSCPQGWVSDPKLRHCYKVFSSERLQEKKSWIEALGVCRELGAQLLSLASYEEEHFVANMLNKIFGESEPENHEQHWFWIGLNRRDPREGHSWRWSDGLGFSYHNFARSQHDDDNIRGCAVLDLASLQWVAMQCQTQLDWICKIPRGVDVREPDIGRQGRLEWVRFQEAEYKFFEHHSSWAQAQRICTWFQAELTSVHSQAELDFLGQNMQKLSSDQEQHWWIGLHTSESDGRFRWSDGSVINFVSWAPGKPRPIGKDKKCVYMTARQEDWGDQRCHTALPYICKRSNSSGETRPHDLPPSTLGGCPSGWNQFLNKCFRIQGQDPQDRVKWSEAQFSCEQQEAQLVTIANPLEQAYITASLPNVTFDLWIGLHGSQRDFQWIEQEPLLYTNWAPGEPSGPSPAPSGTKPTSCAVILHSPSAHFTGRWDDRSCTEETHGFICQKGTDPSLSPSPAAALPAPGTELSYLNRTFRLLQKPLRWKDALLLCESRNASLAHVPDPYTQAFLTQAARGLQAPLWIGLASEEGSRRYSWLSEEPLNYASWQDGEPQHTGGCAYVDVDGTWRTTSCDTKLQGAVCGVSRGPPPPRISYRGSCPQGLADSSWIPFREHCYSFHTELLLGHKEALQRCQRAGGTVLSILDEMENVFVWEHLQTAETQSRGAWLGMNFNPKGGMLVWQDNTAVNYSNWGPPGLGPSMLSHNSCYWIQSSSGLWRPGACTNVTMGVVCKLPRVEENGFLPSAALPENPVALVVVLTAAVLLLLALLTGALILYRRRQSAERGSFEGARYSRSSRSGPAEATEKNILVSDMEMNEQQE
Protocol: (§1) For all binding experiments, cells were seeded into 2.0 cm^2 wells. After the cells reached approximately 95% confluence, the medium was replaced with fresh medium containing 1 mg/ml BSA and the cells were assayed for binding 4 h later. The cells were first washed with maintenance medium, then incubated in the same medium with 0.01% Tween 80 containing ^125I-rat collagenase-3 or other iodinated ligands at 4° C. for 2 h. Non-specific binding was assessed by adding a 50-100-fold excess of cold ligand to half the wells, while an equivalent volume of buffer was added to the remaining wells. After incubation, the wells were washed three times with ice-cold MEM (0.5 ml). The cells were then lysed with 500 μl of 1 M NaOH and the lysates were counted on a gamma counter. Protein labeling with ^125I was done using the chloramine T method (Greenwood et al., 1963, Biochem. J. 89:114). The proteins had specific activities ranging from 9 to 27 μCi/μg.
(§2) The recombinant mouse MMP-13 has essentially equivalent catalytic, kinetic, and binding activity as the rat MMP-13 homolog utilized in Example 1.

[2] = tested on: UMR 106-01 rat osteosarcoma cells; experiment: Binding of 125I-labeled proteinases to UMR 106-01 cells; details: for binding to UMR cells (in words): 125I-labeled protein, direct binding; for Specific binding: 125I-labeled ligand 8 nM, means ± SEM for triplicate wells
[3] = target: T2, low density lipoprotein receptor-related protein (Rattus norvegicus, UniProt G3V928); experiment: Scatchard analysis of 125I-mMMP-13 binding to UMR 106-01 cells, lower affinity site
T2 construct: endogenous in cells; host or cells: UMR 106-01 rat osteosarcoma cells
T2 sequence (G3V928 20-3944 limits assumed): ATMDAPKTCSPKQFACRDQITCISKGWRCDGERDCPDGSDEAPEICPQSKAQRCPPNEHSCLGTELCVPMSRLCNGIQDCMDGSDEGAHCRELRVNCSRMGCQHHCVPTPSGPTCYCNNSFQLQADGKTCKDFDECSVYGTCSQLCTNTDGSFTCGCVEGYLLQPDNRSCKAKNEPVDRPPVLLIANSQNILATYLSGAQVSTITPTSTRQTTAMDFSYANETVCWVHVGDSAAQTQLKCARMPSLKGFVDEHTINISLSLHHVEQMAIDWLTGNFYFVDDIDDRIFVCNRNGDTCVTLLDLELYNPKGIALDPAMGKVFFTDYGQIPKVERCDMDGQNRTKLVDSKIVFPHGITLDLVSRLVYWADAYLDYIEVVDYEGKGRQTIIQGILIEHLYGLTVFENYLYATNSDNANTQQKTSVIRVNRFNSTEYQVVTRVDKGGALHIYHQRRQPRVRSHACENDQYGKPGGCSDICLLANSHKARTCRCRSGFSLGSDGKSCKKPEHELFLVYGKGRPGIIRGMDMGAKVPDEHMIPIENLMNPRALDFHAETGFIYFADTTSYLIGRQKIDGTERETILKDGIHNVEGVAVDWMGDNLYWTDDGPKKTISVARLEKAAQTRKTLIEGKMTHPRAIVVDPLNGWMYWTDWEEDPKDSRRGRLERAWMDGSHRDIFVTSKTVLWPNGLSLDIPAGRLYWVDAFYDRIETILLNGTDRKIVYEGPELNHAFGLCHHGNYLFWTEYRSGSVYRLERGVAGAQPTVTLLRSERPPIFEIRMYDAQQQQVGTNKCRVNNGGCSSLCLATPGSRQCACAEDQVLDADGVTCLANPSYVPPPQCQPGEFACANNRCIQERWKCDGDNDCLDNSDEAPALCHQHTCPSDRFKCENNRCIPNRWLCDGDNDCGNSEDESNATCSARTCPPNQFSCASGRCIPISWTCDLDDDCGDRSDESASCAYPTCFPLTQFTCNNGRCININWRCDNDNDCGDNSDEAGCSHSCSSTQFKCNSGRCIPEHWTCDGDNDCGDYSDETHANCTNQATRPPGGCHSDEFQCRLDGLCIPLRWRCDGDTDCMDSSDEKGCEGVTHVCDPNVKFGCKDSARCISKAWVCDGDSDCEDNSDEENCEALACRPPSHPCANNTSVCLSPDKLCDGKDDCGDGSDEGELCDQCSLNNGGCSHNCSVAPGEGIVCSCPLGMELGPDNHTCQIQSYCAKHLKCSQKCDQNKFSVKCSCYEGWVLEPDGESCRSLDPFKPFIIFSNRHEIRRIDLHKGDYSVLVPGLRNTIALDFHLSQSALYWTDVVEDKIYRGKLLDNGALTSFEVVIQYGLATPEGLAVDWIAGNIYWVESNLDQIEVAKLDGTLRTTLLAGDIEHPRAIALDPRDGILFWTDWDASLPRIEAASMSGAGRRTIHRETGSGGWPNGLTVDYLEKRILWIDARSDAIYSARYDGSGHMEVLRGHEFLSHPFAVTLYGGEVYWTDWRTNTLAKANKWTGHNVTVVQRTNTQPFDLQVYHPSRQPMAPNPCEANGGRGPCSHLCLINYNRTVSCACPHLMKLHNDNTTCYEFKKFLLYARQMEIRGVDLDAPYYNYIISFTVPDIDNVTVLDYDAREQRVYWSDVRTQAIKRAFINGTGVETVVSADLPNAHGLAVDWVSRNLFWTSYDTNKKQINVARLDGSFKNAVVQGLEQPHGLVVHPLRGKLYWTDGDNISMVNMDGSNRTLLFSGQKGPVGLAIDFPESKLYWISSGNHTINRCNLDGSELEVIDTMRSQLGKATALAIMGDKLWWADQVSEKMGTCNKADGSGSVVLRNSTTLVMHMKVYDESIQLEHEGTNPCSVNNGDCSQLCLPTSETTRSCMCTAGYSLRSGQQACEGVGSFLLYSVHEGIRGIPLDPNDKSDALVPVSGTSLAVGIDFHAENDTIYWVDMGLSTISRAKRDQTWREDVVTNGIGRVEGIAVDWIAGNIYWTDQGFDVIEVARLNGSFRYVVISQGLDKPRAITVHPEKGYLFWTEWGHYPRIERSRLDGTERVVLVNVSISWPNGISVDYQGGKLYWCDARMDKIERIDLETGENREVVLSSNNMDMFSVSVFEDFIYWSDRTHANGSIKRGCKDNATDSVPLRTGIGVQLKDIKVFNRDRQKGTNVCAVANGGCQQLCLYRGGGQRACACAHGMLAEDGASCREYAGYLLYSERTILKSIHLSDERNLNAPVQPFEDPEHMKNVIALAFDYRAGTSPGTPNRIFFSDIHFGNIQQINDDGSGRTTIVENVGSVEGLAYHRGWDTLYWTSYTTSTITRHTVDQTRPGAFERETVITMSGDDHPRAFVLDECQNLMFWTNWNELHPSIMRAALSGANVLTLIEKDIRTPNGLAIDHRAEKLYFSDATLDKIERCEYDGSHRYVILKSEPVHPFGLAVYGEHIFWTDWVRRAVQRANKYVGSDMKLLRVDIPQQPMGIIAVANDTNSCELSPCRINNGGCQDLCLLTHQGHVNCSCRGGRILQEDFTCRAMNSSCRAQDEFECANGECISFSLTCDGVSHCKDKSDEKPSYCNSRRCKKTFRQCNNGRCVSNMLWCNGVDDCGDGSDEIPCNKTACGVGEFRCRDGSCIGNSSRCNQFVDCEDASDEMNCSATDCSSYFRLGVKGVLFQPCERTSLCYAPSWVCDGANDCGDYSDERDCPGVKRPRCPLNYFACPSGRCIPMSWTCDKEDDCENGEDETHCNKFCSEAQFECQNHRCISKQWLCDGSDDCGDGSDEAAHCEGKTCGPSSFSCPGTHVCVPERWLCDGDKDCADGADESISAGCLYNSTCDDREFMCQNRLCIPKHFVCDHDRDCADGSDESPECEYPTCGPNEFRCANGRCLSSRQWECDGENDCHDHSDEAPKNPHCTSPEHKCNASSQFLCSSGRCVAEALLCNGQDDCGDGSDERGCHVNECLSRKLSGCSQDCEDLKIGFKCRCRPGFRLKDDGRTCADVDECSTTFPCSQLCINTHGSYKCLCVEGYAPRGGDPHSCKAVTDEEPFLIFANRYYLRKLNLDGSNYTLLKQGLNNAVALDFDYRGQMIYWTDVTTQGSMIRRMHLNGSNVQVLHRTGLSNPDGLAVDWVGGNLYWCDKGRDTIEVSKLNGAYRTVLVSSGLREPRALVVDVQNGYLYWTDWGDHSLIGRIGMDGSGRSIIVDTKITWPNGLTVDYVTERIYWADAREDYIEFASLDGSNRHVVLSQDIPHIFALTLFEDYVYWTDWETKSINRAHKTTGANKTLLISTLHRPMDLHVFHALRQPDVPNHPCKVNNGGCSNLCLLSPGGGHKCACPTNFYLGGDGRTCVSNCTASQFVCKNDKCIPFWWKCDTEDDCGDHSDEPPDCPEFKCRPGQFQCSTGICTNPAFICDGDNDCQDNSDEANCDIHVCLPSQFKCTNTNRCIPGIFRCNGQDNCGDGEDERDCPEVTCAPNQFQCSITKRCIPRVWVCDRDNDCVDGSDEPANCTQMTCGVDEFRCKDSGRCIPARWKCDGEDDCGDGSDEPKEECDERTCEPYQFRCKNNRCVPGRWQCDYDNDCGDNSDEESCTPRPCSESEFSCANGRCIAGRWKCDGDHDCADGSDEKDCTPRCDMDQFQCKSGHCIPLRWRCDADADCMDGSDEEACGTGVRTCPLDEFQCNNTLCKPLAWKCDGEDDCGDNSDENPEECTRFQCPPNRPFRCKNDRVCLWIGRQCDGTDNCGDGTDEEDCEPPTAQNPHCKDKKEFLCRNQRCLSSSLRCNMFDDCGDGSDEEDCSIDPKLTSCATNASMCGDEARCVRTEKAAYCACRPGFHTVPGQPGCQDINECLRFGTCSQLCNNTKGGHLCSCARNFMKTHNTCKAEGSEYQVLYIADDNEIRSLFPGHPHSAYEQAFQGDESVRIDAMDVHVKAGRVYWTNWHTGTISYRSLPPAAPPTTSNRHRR
T2 sequence (G3V928 3945-4545 partner limits assumed): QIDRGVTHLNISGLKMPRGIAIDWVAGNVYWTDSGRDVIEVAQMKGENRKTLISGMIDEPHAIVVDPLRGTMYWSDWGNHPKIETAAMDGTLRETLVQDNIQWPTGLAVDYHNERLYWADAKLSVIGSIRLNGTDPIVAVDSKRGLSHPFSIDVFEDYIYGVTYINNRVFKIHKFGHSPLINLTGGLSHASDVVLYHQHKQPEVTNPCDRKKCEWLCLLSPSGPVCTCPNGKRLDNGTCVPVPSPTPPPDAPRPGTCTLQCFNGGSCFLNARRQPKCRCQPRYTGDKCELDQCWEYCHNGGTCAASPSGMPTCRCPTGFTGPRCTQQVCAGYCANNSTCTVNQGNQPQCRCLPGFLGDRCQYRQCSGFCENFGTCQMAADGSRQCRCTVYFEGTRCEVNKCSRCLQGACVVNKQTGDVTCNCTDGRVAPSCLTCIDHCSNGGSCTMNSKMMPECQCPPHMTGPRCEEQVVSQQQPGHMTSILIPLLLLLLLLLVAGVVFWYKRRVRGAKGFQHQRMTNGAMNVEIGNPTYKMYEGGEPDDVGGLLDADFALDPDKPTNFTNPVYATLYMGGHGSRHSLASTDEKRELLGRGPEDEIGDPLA
Protocol: as §1, §2

[4] = tested on: MEF-1 mouse embryo fibroblasts; experiment: Competition for 125I collagenase-3 binding in MEF-1 cells; details: competitor at 200-, 400- and 800-fold excess over 125I mouse collagenase-3; ± S.E.M., triplicate wells
Protocol: as §1
(§3) In order to exclude the possibility that the collagenase-3 receptor is the low density lipoprotein receptor-related protein, two cell lines of mouse embryo fibroblasts were used: wild-type (MEF-1) and low density lipoprotein receptor-related protein-null (MEF-2) (both provided by Dr. Joachim Herz). These cells were cultured in Dulbecco's MEM with 10% FBS, 10 units penicillin/ml, 10 μg streptomycin/ml.
(§4) These proteins were used as competitors in a series of binding assays in UMR cells using ^125I mouse collagenase-3. Radioactive labeling and binding assays were performed as in Example 1.
(§5) This region thus appears to be the high-affinity binding domain recognized by the collagenase-3 receptor, and the other two domains (SEQ ID's NO:1 and 3) may be recognized by the lower-affinity low density lipoprotein receptor-related protein or may alternatively stabilize the interaction with the collagenase-3 receptor. To investigate the contribution of each receptor, two mouse embryo fibroblast (MEF) cell lines were utilized. The MEF-1 cell line is known to express both the collagenase-3 receptor and the low density lipoprotein receptor-related protein, while the MEF-2 cell line has been rendered low density lipoprotein receptor-related protein-null. […] This hypothesis is confirmed by the data on Table 4.

[5] = tested on: UMR 106-01 cells; experiment: Competition for 125I collagenase-3 binding in UMR 106-01 cells; set-up: species or system rat; details: for competition efficiency compared to full-length collagenase-3: 125I mouse collagenase-3; for percent of mouse collagenase-3 binding, UMR-106-01: competitor at 200-, 400- and 800-fold excess over 125I mouse collagenase-3, ± S.E.M., seven pooled experiments; for competition for 125I mouse collagenase-3 binding (in words): compared to full-length MMP-13
Protocol: as §1, §4

[6] = tested on: MEF-2 (LRP null) mouse embryo fibroblasts; experiment: Competition for 125I collagenase-3 binding in MEF-2 (LRP null) cells; details: for percent of mouse collagenase-3 binding, MEF-2 (LRP null): competitor at 200-, 400- and 800-fold excess over 125I mouse collagenase-3, ± S.E.M., triplicate wells; for competition for receptor binding in MEF-2 cells (in words): compared to MEF-1 cells
Protocol: as §1, §3, §4, §5

[7] = tested on: UMR 106-01 cells; experiment: Internalization assay in UMR 106-01 cells; assay type: cell-based, rat
Protocol: Although the low density lipoprotein receptor-related protein is not required for rat collagenase-3 binding to the cell, it might be required for ligand internalization. Therefore, internalization assays were performed with ^125I-rat collagenase-3 using MEF-1 and MEF-2 cells as follows. After binding 125I-rat labeled proteins as above, the cells were washed three times with cold modified Eagle's media (0.5 ml) to remove unbound ligand. The cells were then warmed to 37° C. by the addition of prewarmed modified Eagle's media (0.25 ml), and incubated at 37° C. for selected intervals. At each time point, the media were collected, and the cells were washed once with ice-cold MEM, then incubated with 0.25% Pronase®-E in modified Eagle's media for 15 min at 4° C. to strip cell surface proteins. The cell suspension was then centrifuged, and the radioactivity associated with cell pellets (defining internalized ^125I-proteins) was measured at each time point.
It is known that RAP inhibits internalization of ligands by the low density lipoprotein receptor-related protein (Kounnas et al., 1996, J. Biol. Chem 271:6523). Therefore, internalization assays were performed using ^125I-labeled rat collagenase-3 as a ligand and receptor-associated protein as a competitor. Human receptor-associated protein from the pGEX-receptor-associated protein expression vector (provided by Dr. Joachim Herz, University of Texas Southwestern Medical Center, Dallas, Tex.) was expressed in bacteria and prepared as described in Herz et al., 1991, J. Biol. Chem. 266:21232.
To investigate the mechanism by which RAP regulates internalization of collagenase-3, an experiment was performed where excess unlabeled RAP or rat collagenase-3 was prebound to UMR 106-01 cells. Binding and internalization of ^125I-labeled rat collagenase-3 and RAP were then allowed to proceed.

Row | Substance | binding to UMR cells (in words) [2] | percent of mouse collagenase-3 binding, MEF 1 [4] [%] | competition efficiency compared to full-length collagenase-3 [5] | percent of mouse collagenase-3 binding, UMR-106-01 [5] [%] | percent of mouse collagenase-3 binding, MEF-2 (LRP null) [6] [%] | also measured
1 | MMP-13 (1-472): recombinant full-length mouse collagenase-3, residues 1-472 | binds equally as well as the rat enzyme | – | – | – | – | Bmax, high affinity site ([1]; Scatchard analysis): 73.9 pmol/10^5 cells; Bmax, high affinity site ([1]; computer analysis with the GraphPad InPlot program): 75 pmol/10^5 cells; binding to UMR cells (in words) ([2]; listed as mMMP-13): specifically and saturably; Bmax, lower affinity site ([3]; Scatchard analysis): 660 pmol/10^5 cells; Bmax, lower affinity site ([3]; computer analysis): 834 pmol/10^5 cells
2 | H/M (229-472): chimeric collagenase: human MMP-1 N-terminus, mouse MMP-13 residues 229-472 | – | 2.2 ± 1.1 | < 17% | 16.5 ± 5.8 | – | –
3 | HM (166-228)/H: chimeric collagenase: mouse MMP-13 residues 166-228 in human MMP-1 | – | 80.8 ± 6.0 | – | 67.8 ± 3.4 | 97.2 ± 1.7 | competition for 125I mouse collagenase-3 binding (in words) [5]: impaired ability to compete for receptor binding
4 | HM (141-228)/H: chimeric collagenase: mouse MMP-13 residues 141-228 in human MMP-1 | capable of binding specifically to UMR cells | 94.3 ± 4.7 | 90% | 89.9 ± 5.3 | 75.1 ± 13.7 | endocytosis of iodinated construct compared to full-length collagenase-3 (in words) [7]: significantly reduced endocytosis
5 | Human MMP-3: human stromelysin-1 (MMP-3) | – | – | – | – | – | Specific binding [2]: 0.0 ± 0.0 fmol/2.6 × 10^5 cells
6 | HM/M (141-472): chimeric collagenase: human MMP-1 N-terminus, mouse MMP-13 residues 141-472 | – | 84.4 ± 6.1 | – | 95.7 ± 3.9 | – | competition for receptor binding in MEF-2 cells (in words) [6]: significantly impaired ability to compete for receptor binding
7 | Human MMP-1: human fibroblast collagenase-1 (interstitial collagenase) | – | – | – | 0 | – | Specific binding [2]: 0.1 ± 1.4 fmol/2.6 × 10^5 cells
8 | M (1-228)/H: chimeric collagenase: mouse MMP-13 residues 1-228, remainder human MMP-1 | capable of binding specifically to UMR cells | 85.9 ± 10.5 | greater than 90% | 85.3 ± 3.0 | 41.9 ± 9.7 | endocytosis of iodinated construct compared to full-length collagenase-3 (in words) [7]: significantly reduced endocytosis; competition for receptor binding in MEF-2 cells (in words) [6]: impaired binding in MEF-2 cells
9 | MMP-13 (1-265): C-terminally truncated mouse collagenase-3 | – | 100 | – | 100 | – | competition for 125I mouse collagenase-3 binding (in words) [5]: essentially equivalent manner compared to full-length MMP-13
